Reference: patent US11667675B2, “MASP inhibitory compounds and uses thereof” (Bayer Aktiengesellschaft, priority 2019, dated 2023)
Where a name gives a salt, the structure may show the parent alone. Bridge positions count the residues as written; N and C are the ends. Square brackets hold non-standard residues; d marks the D form. Peptide text beside a SMILES is read from it. PEG9 = NCCOCCOCCOCCOCCOCCOCCOCCOCCOCCC(=O)O; tBuAla = CC(C)(C)C[C@H](N)C(=O)O; Pen = CC(C)(S)[C@H](N)C(=O)O; NMeC = CN[C@@H](CS)C(=O)O; Sar = CNCC(=O)O

Key:
human MASP1 = target: T1, human MASP1 (Homo sapiens, UniProt P48740); assay: Biochemical human MASP1 assay (FRET substrate); settings: average IC50
T1 construct: Ig-kappa secretion signal (N, cleaved yes); made in house; host or cells: HEK293 (ATCC No. CRL-1573)
T1 sequence (P48740 297-448): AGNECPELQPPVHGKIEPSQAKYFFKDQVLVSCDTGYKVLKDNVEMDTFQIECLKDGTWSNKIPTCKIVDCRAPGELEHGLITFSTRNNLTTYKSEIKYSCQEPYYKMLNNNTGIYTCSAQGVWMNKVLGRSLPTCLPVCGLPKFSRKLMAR
T1 sequence (P48740 449-699): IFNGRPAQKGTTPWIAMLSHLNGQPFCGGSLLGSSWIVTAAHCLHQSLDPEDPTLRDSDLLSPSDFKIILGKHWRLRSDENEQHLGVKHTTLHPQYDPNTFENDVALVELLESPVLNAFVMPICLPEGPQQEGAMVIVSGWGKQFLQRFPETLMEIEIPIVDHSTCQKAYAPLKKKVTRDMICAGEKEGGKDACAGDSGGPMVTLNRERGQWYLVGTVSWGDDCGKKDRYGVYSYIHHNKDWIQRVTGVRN
From the text: (§1) 2.1 Recombinant Expression and Protein Production of Recombinant Human MASP1 and MASP2 Active Proteases.
(§2) The MASP1 or MASP2 expression vectors were transfected into the HEK293 (ATCC No. CRL-1573) cell line using Lipofectamine LTX® Reagent (Thermo-Fischer), as described by the manufacturer. […] The MASP1 and MASP2 proteins were purified from the conditioned media by affinity chromatography on Ni-NTA Superflow resin (Qiagen) as described by the manufacturer.
2.2 Biochemical Human MASP1 Assay
(§3) Recombinant human MASP1 enzyme produced in the HEK 293 cells was diluted in the reaction buffer (50 mM HEPES pH 8,0; 100 mM NaCl; 0.01% CHAPS; 0.5 mM Gluthathione) to the concentration of 20 nM and 25 μl was transferred into each single well of 384-well white microtiter plate (Greiner Bio One 781075). 1 μl of the inhibitor compound solution (dissolved in DMSO, at the corresponding concentration) or pure DMSO as a control was added to the same wells. […] The microtiter plate was incubated for 60-120 min at the temperature of 32 C. The increase of fluorescence intensity was measured in appropriate fluorescence plate reader (e.g. TECAN Ultra) using excitation wavelength of 320 nm and emission wavelength of 420 nm. IC50 values were calculated from percentage of inhibition of human MASP1 activity as a function of test compound concentration.

Human C3-[…] = assay: C3 deposition assay, human serum on mannan-coated plates; assay type: biochemical; settings: average IC50, read-out: Human C3-DEPOSITION SERUM IC50
Description: (§4) 3. C3 Deposition Assay (Human, Rat, Mouse, Dog, Mini-Pig)
(§5) The C3 deposition assay was conducted essentially as described (reference). Multi well plates (Greiner-Nunc 384 Maxi Sorp #464718) were coated over night with Mannan from Saccharomyces cerevisiae (Sigma M7504, 10 μg/mL in 0.05 M carbonate-bicarbonate buffer, pH 9.6) at 4° C. Wells were washed three times with TBS and subsequently incubated for 2 hours with 50 μL of 1% bovine serum albumin (BSA) in Tris-buffered saline (TBS) at 37° C. in order to block non-specific binding. After this step and each of the following incubation steps wells were washed three times with C3 wash buffer (TBS; 0.05% Tween 20; 5 mM CaCl2). […] When appropriately developed the color reaction was stopped by addition of 25 μL of stop solution (Sigma S5814) and quantified on a photometer by measuring absorption at a wavelength of 450 nm. Antibodies were diluted in C3 wash buffer supplemented with 0.5% BSA.

rat MASP1 = target: T2, rat MASP1 (Rattus norvegicus, UniProt Q8CHN8); assay: Biochemical rat MASP1 assay (FRET substrate); settings: average IC50; recombinant rat MASP1, FRET substrate
T2 construct: Ig-kappa secretion signal (N, cleaved yes); made in house; host or cells: HEK293 (ATCC No. CRL-1573)
T2 sequence (Q8CHN8 302-453 limits assumed): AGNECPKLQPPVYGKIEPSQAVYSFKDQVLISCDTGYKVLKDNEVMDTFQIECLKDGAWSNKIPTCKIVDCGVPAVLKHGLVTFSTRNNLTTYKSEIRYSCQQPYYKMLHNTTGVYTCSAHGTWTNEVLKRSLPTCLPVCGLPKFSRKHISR
T2 sequence (Q8CHN8 454-704 limits assumed): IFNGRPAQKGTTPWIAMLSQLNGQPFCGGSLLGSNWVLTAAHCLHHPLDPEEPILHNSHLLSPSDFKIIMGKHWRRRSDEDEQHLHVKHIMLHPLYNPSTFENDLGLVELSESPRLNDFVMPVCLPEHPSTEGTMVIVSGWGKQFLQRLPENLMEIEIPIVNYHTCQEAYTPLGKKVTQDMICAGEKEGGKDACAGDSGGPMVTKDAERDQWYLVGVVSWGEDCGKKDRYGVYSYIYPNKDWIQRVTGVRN
From the text: (§6) 4. Biochemical Rat MASP-1 and MASP-2 Assay
(§7) 4.1 Recombinant Expression and Protein Production of Recombinant Human and Rat MASP1 and MASP2 Active Proteases.
A truncated cDNA sequence of rat MASP1 encoding the fragment corresponding to the amino acids 302-704 with an C-terminal His Tag and N-terminal Ig-kappa secretion signal (SEQ ID No: 4) was subcloned into the mammalian expression vector pcDNA3.1 (Invitrogen).
(§8) The MASP1 or MASP2 expression vectors were transfected into the HEK293 (ATCC No. CRL-1573) cell line using Lipofectamine LTX® Reagent (Thermo-Fischer), as described by the manufacturer. The mature form of the recombinant rat MASP1 and MASP2 proteases were secreted into the culture medium. The MASP1 and MASP2 proteins were purified from the conditioned media by affinity chromatography on Ni-NTA Superflow resin (Qiagen) as described by the manufacturer.
4.2 Biochemical Rat MASP1 Assay.
Recombinant rat MASP1 enzyme produced in the HEK 293 cells was diluted in the reaction buffer (50 mM HEPES pH 8,0; 100 mM NaCl; 0.01% CHAPS; 0.5 mM Gluthathione) to the concentration of 4 nM and 25 μl was transferred into each single well of 384-well white microtiter plate (Greiner Bio One 781075). 1 μl of the inhibitor compound solution (dissolved in DMSO, at the corresponding concentration) or pure DMSO as a control was added to the same wells. The enzymatic reaction was initiated by addition of 25 μl of 40 μM solution of the FRET substrate Dabcyl-[…]-Glu(Edans)-NH2 (SEQ ID NO: 8); (Dabcyl—4-((4-(dimethylamino)phenyl)azo)benzoic acid; Edans—5-[(2-Aminoethyl) amino]naphthalene-1-sulfonyl; custom synthesis by Jerini Peptide Technologies, Berlin) in the reaction buffer. The microtiter plate was incubated for 60-120 min at the temperature of 32 C. The increase of fluorescence intensity was measured in appropriate fluorescence plate reader (e.g. TECAN Ultra) using excitation wavelength of 340 nm and emission wavelength of 490 nm. IC50 values were calculated from percentage of inhibition of rat […] activity as a function of test compound concentration.

rat MASP2 = target: T3, rat MASP2 (Rattus norvegicus, UniProt Q9JJS8); assay: Biochemical rat MASP2 assay (FRET substrate); settings: average IC50; recombinant rat MASP2, FRET substrate
T3 construct: Ig-kappa secretion signal (N, cleaved yes); made in house; host or cells: HEK293 (ATCC No. CRL-1573)
T3 sequence (Q9JJS8 296-443): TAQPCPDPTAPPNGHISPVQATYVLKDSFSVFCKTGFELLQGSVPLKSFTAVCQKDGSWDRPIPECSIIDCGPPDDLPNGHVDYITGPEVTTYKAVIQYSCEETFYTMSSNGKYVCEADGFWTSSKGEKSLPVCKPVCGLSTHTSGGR
T3 sequence (Q9JJS8 444-685): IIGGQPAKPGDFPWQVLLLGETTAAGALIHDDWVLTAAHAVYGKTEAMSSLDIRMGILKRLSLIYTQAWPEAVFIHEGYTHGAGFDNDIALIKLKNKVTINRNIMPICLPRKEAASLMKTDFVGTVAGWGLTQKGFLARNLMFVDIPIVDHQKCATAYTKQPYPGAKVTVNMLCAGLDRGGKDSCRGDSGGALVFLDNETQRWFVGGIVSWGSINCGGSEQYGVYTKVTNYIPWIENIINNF
From the text: as §6, §7, §8
4.3 Biochemical Rat MASP2 Assay.
Recombinant rat MASP2 enzyme produced in the HEK 293 cells was diluted in the reaction buffer (50 mM HEPES pH 8,0; 100 mM NaCl; 0.01% CHAPS; 0.5 mM Gluthathione) to the concentration of 20 nM and 25 μl was transferred into each single well of 384-well white microtiter plate (Greiner Bio One 781075). 1 μl of the inhibitor compound solution (dissolved in DMSO, at the corresponding concentration) or pure DMSO as a control was added to the same wells. The enzymatic reaction was initiated by addition of 25 μl of 30 μM solution of the FRET substrate Abz-IEGRTSED-(Lys)Dnp-NH2 (SEQ ID NO: 9); (ABZ—2-aminobenzoyl; DNP_2,4-dinitrophenyl; custom synthesis by Jerini Peptide Technologies, Berlin) in the reaction buffer. The microtiter plate was incubated for 60-120 min at the temperature of 32 C. The increase of fluorescence intensity was measured in appropriate fluorescence plate reader (e.g. TECAN Ultra) using excitation wavelength of 320 nm and emission wavelength of 420 nm. IC50 values were calculated from percentage of inhibition of rat […] activity as a function of test compound concentration.

rat C3-[…] = assay: C3 deposition assay, rat serum on mannan-coated plates; assay type: biochemical; settings: average IC50
Description: as §4, §5

human MASP2 = target: T4, human MASP2 (Homo sapiens, UniProt O00187); assay: Biochemical human MASP2 assay (FRET substrate); settings: average IC50
T4 construct: Ig-kappa secretion signal (N, cleaved yes); made in house; host or cells: HEK293 (ATCC No. CRL-1573)
T4 sequence (O00187 297-444): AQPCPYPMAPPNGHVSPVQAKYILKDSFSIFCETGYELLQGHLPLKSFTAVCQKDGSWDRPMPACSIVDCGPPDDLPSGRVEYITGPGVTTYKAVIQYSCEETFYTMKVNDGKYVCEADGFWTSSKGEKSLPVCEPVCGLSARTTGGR
T4 sequence (O00187 445-686): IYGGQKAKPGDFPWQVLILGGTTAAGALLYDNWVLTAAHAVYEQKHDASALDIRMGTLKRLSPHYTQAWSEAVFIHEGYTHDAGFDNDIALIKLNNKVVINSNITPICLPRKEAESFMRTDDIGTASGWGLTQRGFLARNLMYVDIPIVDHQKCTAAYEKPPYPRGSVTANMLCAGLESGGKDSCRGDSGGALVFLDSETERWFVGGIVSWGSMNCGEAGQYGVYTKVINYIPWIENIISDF
From the text: as §1, §2
2.3 Biochemical Human MASP2 Assay
as §3, with “MASP2” for “MASP1”, “340” for “320”, “490” for “420”

Compound | IC50 (human MASP1) | IC50 (Human C3-[…]) | IC50 (rat MASP1) | IC50 (rat MASP2) | IC50 (rat C3-[…]) | IC50 (human MASP2)
CCC(C)[C@H](NC(=O)[C@H]1NC(=O)[C@H]([C@@H](C)CC)NC(=O)[C@@H]2C[C@@H]3CCCC[C@@H]3N2C(=O)[C@@H]2CCCN2C(=O)[C@H](CC(C)C)NC(=O)[C@H](CO)NC(=O)[C@H](CCCNC(=N)N)NC(=O)[C@H](CO)NC(=O)[C@@H](NC(=O)[C@@H](NC(=O)[C@H](C)NC)[C@@H](C)CC)CSSC1(C)C)C(=O)N1CCC[C@H]1C(=O)N[C@@H](CC(=O)NCc1ccccc1)C(N)=O (stereo in doubt) [Example 462] | 12 nM | 61 nM | 160 nM | 150 nM | – | –
AIC+SRSLP-(Oic)-I-(Pen)+IPD-OH [Example 5] | – | 10.3 nM | – | – | 214 nM | –
CC[C@H](C)[C@H](NC(=O)[C@H](C)N)C(=O)N[C@H]1CSSC(C)(C)[C@@H](C(=O)N[C@H](C(=O)N2CCC[C@H]2C(=O)N[C@@H](CC(=O)O)C(N)=O)[C@@H](C)CC)NC(=O)[C@H]([C@@H](C)CC)NC(=O)[C@@H]2C[C@@H]3CCCC[C@@H]3N2C(=O)[C@@H]2CCCN2C(=O)[C@H](CC(C)C)NC(=O)[C@H](CO)NC(=O)[C@H](CCCNC(=N)N)NC(=O)[C@H](CO)NC1=O [Example 75, AIC+SRSLP-(Oic)-I-(Pen)+IPD-NH2] | 2.23 nM | 32 nM | 35 nM | 34.9 nM | 183 nM | –
CC[C@H](C)[C@H](NC(=O)[C@H](C)N)C(=O)N[C@H]1CSSC(C)(C)[C@@H](C(=O)N[C@H](C(=O)N2CCC[C@H]2C(=O)N[C@@H](CC(=O)O)C(=O)O)[C@@H](C)CC)NC(=O)[C@H]([C@@H](C)CC)NC(=O)[C@@H]2C[C@@H]3CCCC[C@@H]3N2C(=O)[C@@H]2CCCN2C(=O)[C@H](CC(C)C)NC(=O)[C@H](CO)NC(=O)[C@H](CCCNC(=N)N)NC(=O)[C@H](CO)NC1=O [Example 29, AIC+SRSLP-(Oic)-I-(Pen)+IPD-OH (HCl Salt)] | 2.45 nM | 6.99 nM | 10.5 nM | 17.4 nM | 196 nM | –
AIC+SRSLP-(Oic)-I-(Pen)+IPD-NH2 [Example 27] | – | 8.5 nM | – | – | 146 nM | –
CC[C@H](C)[C@H](NC(=O)[C@H](C)N)C(=O)N[C@H]1CSSC[C@@H](C(=O)N[C@H](C(=O)N2CCC[C@H]2C(=O)N[C@@H](CC(=O)O)C(N)=O)[C@@H](C)CC)N(C)C(=O)[C@H]([C@@H](C)CC)NC(=O)[C@@H]2CCCN2C(=O)[C@@H]2CCCN2C(=O)[C@H](CC(C)(C)C)NC(=O)[C@H](CO)NC(=O)[C@H](CCCNC(=N)N)NC(=O)[C@H](CO)NC1=O [Example 48, AIC+SRS-((tBu)A)-PPI-((N-Me)C)+IPD-NH2] (H-AICSRS[tBuAla]PPI[NMeC]IPD-NH2; disulfide 3-11) | 1.95 nM | 102 nM | 51.5 nM | – | – | 225 nM
CC[C@H](C)[C@H](NC(=O)CNC)C(=O)N[C@H]1CSSC(C)(C)[C@@H](C(=O)N[C@H](C(=O)N2CCC[C@H]2C(=O)NCCOCCOCCOCCOCCOCCOCCOCCOCCOCCC(N)=O)[C@@H](C)CC)NC(=O)[C@H]([C@@H](C)CC)NC(=O)[C@@H]2CCCN2C(=O)[C@@H]2CCCN2C(=O)[C@H](CC(C)(C)C)NC(=O)[C@H](CO)NC(=O)[C@H](CCCNC(=N)N)NC(=O)[C@H](CO)NC1=O [Example 44, ((N-Me)G)-IC+SRS-((tBu)A)-PPI-(Pen)+IP-(PEG9(31 Atoms))-NH2] (H-[Sar]ICSRS[tBuAla]PPI[Pen]IP[PEG9]-NH2; disulfide 3-11) | – | 68.5 nM | 87 nM | 35 nM | – | 73 nM
